Data set [1] deals with SH-SY5Y cells. As to the kind of experiment: MTT cell viability assay, SH-SY5Y. The data set is classed as cell-based, human. The following applies: 20 and 40 μM peptide, overnight, n = 3. The protocol:
(§1) The cell viability assay was performed using the reduction of [3-(4,5-dimethylthiazol-2-yl)-2,5-diphenyl tetrazolium bromide-MTT] (Merck, Darmstadt, Germany) to investigate the cytotoxicity of the CDPs against SH-SY5Y (human neuroblastoma) and HEK293 (human embryonic kidney) cells. Both cell lines were purchased from the Leibniz Institute DSMZ-German collection of microorganisms and cell cultures GmbH. HEK293 cells were cultivated in Dulbecco’s modified Eagle’s medium high glucose (Merck, Darmstadt, Germany) containing 2% antibiotic solution of 10 000 units Penicillin, 10 mg streptomycin/ml (Merck, Darmstadt, Germany), and 10% fetal bovine serum (Merck, Darmstadt, Germany) at 37 °C with 5% CO2. […]
(§2) According to the manufacturer’s instructions, cell viability was measured using the Cell Proliferation Kit I (Roche, Basel, Switzerland). The absorbance of the formazan product was determined by measuring the absorption at 570 nm and subtracted from the absorbance at 660 nm.
(§3) The SH-SY5Y cells with a density of 10 000 cells (for HEK293 5000 cells) per well (total volume of 100 μL) were added to each well of a 96-well tissue culture plate (VWR North American) and incubated overnight at 37 °C with 5% CO2. […] Finally, the absorbance was measured at 570 and 660 nm using a CLARIO star plate reader (BMG labtech, Ortenberg, Germany), and the cell viability was calculated using eq 2: [drawing 2] […]

The subject of data set [2] is HEK293 cells. As to the kind of experiment: MTT cell viability assay, HEK293. The following applies: 20 and 40 μM peptide, overnight, n = 3. Type of data set: cell-based, human. The protocol:
as §1, §2, §3

The test system of data set [3] is Aβ42 oligomers. As to the kind of experiment: QIAD assay (Aβ42 aggregate size distribution, oligomer elimination). Conditions: 20 μM peptide added to 80 μM Aβ42 (pre-incubated 2 h), 30 min; density gradient, RP-HPLC UV 214 nm; n = 3. Type of data set: biochemical. As to the method: In order to evaluate the efficacy of the peptides in eliminating Aβ42 oligomers, QIAD assays were performed.[39] Briefly, lyophilized Aβ42 (80 μM) was incubated for 2 h in sodium phosphate buffer for Aβ42 oligomerization. Then, each peptide (20 μM) was added to the Aβ42 solution and incubated for 30 min. Finally, samples were added on top of an iodixanol density gradient (5–50% (w/v) (OptiPrep, Sigma-Aldrich, Darmstadt, Germany) and centrifuged for 3 h at 4 °C and 259,000 x g (Optima TL-100, Beckman Coulter, Brea, CA, USA). For the sample analysis, 14 fractions (140 μL each) were collected from top to bottom. The top fractions, named fractions 1–2, contained Aβ42-monomers; fractions 4–6 contained the Aβ42-oligomers, which are of special interest; and the bottom fractions 11–14 contained high molecular weight of aggregated Aβ42. Each density gradient fraction was analyzed by Reversed Phase Liquid Chromatography. For this an Agilent 1260 Infinity II (Santa Clara, California, USA) system was equipped with an Agilent Zorbax SB-300 C-8 5 μm, 4.6 × 250 mm Column (Santa Clara, California, USA) and a multi-wavelength detector set to acquire the UV absorbance at 214 nm. H2O + 0.1% trifluoroacetic acid (AppliChem, Darmstadt, Germany) and acetonitrile (Roth, Karlsruhe, Germany) + 0.1% trifluoroacetic acid were used as eluent A and B, respectively. The acquisition method consisted of an initial isocratic step at 15% B, followed by a gradient from 15% B to 45% B in 10 min and another isocratic step at 45% B. The column temperature was set to 80 °C for the entire analysis. This method ensured full separation of the iodixanol density gradient medium and Aβ42 in all fractions. Aβ42 peaks were analyzed and integrated by the Agilent OpenLab 2.5 software. All measurements were performed in triplicate (n = 3), and data are presented as mean ± SM.

Data set [4] concerns the target T1, Aβ42 (Homo sapiens, UniProt P05067).
T1 construct: purchased Bachem, Bubendorf, Switzerland
As to the kind of experiment: Thioflavin T (ThT) assay of Aβ42 aggregation. The following applies: 28 μM peptide, 10 μM Aβ42, 5 μM ThT, 24 h, room temperature; mean of n = 3. Type of data set: biochemical. As to the method:
To evaluate the ability of the peptides to prevent Aβ42 aggregation, a ThT assay was performed. Aβ42 (10 μM), ThT (5 μM), and the peptides (28 μM) were incubated in 96-well plates for 24 h at room temperature in a plate reader (Clariostar, BMG Labtech, Ortenberg, Germany). During this time, the ThT fluorescence was measured every 6 minutes with an excitation of 440 nm and emission of 490 nm. The data were corrected considering the blank wells (without Aβ42 and the peptides). None of the peptides interact with ThT alone or has autofluorescence properties. All measurements were performed in triplicate (n = 3), and data are presented as mean ± SM.
Different concentrations were titrated to investigate CDP-1 and -2 dose dependency on the Aβ42 aggregate formation, and a ThT assay was performed as described before. The effect of 0, 0.5, 1, 3, 6, 13, and 28 μM peptides was tested against 10 μM Aβ42 over 24 h. All experiments were performed in triplicate (n = 3), and data are presented as mean ± SM.

Data set [5] relates to Aβ42 aggregates. As to the kind of experiment: sFIDA assay of Aβ42 aggregate elimination. The data set is classed as biochemical. The following applies: n = 3; for sFIDA signal reduction compared with the control: 50 nM peptide, 1 nM Aβ42 aggregates, overnight, room temperature, PBS, TIRFM pixel count. As to the method: To determine the influence of peptides on Aβ42 aggregates, an sFIDA assay was performed. The principle was previously described.[29] Therefore, we used pretreated 384 glass bottom microtiterplates (Sensoplate plus, Greiner Bio-One GmbH, Frickenhausen, Germany) to immobilize the capture-antibody Nab228 (Sigma-Aldrich, St. Louis, Missouri, USA) in a concentration of 2.5 μg/mL in 0.1 M carbonate buffer (Carl Roth, Karlsruhe, Germany). After an overnight incubation at 4 °C, the plate was washed five times with TBS and blocked with 80 μL of a 0.5% BSA solution in TBS with 0.03% ProClin 300 (Sigma-Aldrich, St. Louis, Mo, USA) for 1.5 h at room temperature.
The influence of 50 nM CDPs on 1 nM Aβ42 aggregates (prepared according to Ref ([70])) in PBS was determined by incubating them overnight at room temperature and 600 rpm. As a control, the same Aβ42 aggregates concentration was incubated without additions of peptides; instead, the buffer was added to contain the same end concentrations. The plate was washed as previously described, and 20 μL each of the peptide solution and a serial dilution of Aβ42 aggregates standards in PBS were added and incubated for 2 h at room temperature.
Afterward, 20 μL of 0.625 μg/mL IC-16 CF633 (Heinrich Heine Universität Düsseldorf, Germany) in TBS with 0.1% BSA was added to each well and incubated for 1 h at room temperature. This red fluorescently labeled detection antibody was labeled with CF633 succinimidyl ester (Sigma-Aldrich, St. Louis, Missouri, USA) after the manufacturer’s protocol. After a washing step to remove the redundant antibodies, 80 μL of TBS containing 0.03% Proclin were added.
By using a total internal reflection microscopy (TIRFM) (Leica Camera AG, Wetzlar, Germany), measurement (excitation: 635 nm, emission filter: 705/22 nm) was carried out with an oil immersion objective in 100× magnifications as previously described by Kass et al. 2022, and for each well, 25 of 14-bit grayscale images were measured with a size of 1000 × 1000 pixel each. […]

We go through three molecules from publication PMC11258689, “A Snake Venom Peptide and Its Derivatives Prevent Aβ42 Aggregation and Eliminate Toxic Aβ42 Aggregates In Vitro” (ACS Chemical Neuroscience, 2024).

Structures are written as SMILES. Non-standard residues stand in square brackets, D forms with d. Residues, ends and D or L forms follow the SMILES beside them.

T1 sequence (P05067 672-713 limits assumed): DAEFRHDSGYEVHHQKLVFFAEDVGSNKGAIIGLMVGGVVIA

Regarding `COC(=O)[C@H](CCCCN)NC(=O)[C@H](CCCCN)NC(=O)[C@H](CS)NC(=O)[C@H](CS)NC(=O)[C@H](CCCCN)NC(=O)[C@H](Cc1c[nH]c2ccccc12)NC(=O)[C@H](CCCNC(=N)N)NC(=O)[C@H](Cc1c[nH]c2ccccc12)NC(=O)[C@H](CCCNC(=N)N)NC(=O)[C@H](CS)NC(=O)[C@H](CC(=O)O)NC(=O)[C@H](CCSC)NC(=O)[C@H](CCCCN)NC(C)=O` [CDP-1] (Ac-KMDCRWRWKCCKK-OMe; C-terminus assumed), in data set [1], the “cytotoxicity in SH-SY5Y cells” value is given as “nontoxic”. Further, in data set [2], the “cytotoxicity in HEK293 cells” value is listed as “nontoxic”. Besides, the “Aβ42 in QIAD fractions 4–5 (oligomers)” value in data set [3] is “not detected”. For the same molecule, the “ThT signal / Aβ42 aggregation compared to Aβ42 alone” value in data set [4] is “no Aβ42 aggregation was determined”. Moreover, in data set [5], the “sFIDA signal reduction compared with the control” value is given as 61.1%.
`COC(=O)[C@H](CCCCN)NC(=O)[C@H](CCCCN)NC(=O)[C@H](CO)NC(=O)[C@H](CO)NC(=O)[C@H](CCCCN)NC(=O)[C@H](Cc1c[nH]c2ccccc12)NC(=O)[C@H](CCCNC(=N)N)NC(=O)[C@H](Cc1c[nH]c2ccccc12)NC(=O)[C@H](CCCNC(=N)N)NC(=O)[C@H](CO)NC(=O)[C@H](CC(=O)O)NC(=O)[C@H](CCSC)NC(=O)[C@H](CCCCN)NC(C)=O` [CDP-2] (Ac-KMDSRWRWKSSKK-OMe): the “cytotoxicity in SH-SY5Y cells” value in data set [1] is on record as “nontoxic”. Further, the “cytotoxicity in HEK293 cells” value in data set [2] was “nontoxic”. In data set [3], the “Aβ42 in QIAD fractions 4–5 (oligomers)” value is “not detected”. Further, the “ThT signal / Aβ42 aggregation compared to Aβ42 alone” value in data set [4] was “four times smaller”. In addition, the “sFIDA signal reduction compared with the control” value in data set [5] is on record as 95.2%.
Consider `COC(=O)[C@@H](CCCCN)NC(=O)[C@@H](CCSC)NC(=O)[C@@H](CC(=O)O)NC(=O)[C@@H](CS)NC(=O)[C@@H](CCCNC(=N)N)NC(=O)[C@@H](Cc1c[nH]c2ccccc12)NC(=O)[C@@H](CCCNC(=N)N)NC(=O)[C@@H](Cc1c[nH]c2ccccc12)NC(=O)[C@@H](CCCCN)NC(=O)[C@@H](CS)NC(=O)[C@@H](CS)NC(=O)[C@@H](CCCCN)NC(=O)[C@@H](CCCCN)NC(C)=O` [CDP-1D] (Ac-[dK][dK][dC][dC][dK][dW][dR][dW][dR][dC][dD][dM][dK]-OMe; N-terminus and C-terminus assumed), for which the “Aβ42 in QIAD fraction 6 (oligomers)” value in data set [3] is listed as “significant reduction”. Besides, the “sFIDA effect on Aβ42 aggregates” value in data set [5] (Aβ42 aggregates treated with peptide, TIRFM) is “decrease in aggregates”.
